Assay [1] deals with Streptococcus pneumoniae. Briefly: Antimicrobial activity against Streptococcus pneumoniae spain 23F-1. It counts as functional.
Assay [2] relates to Streptococcus sp. The assay is described as follows: Antimicrobial activity against Streptococcus sp. 782/96. It counts as functional.
The subject of assay [3] is Streptococcus sp. The assay is described as follows: Antimicrobial activity against Streptococcus sp.11923/96. It counts as functional.
The subject of assay [4] is Streptococcus pneumoniae. The assay is described as follows: Antimicrobial activity against Streptococcus pneumoniae R6. It counts as functional.
The subject of assay [5] is Streptococcus pneumoniae. The assay is described as follows: Antimicrobial activity against Streptococcus pneumoniae M32. It counts as functional.
The subject of assay [6] is Streptococcus pneumoniae. The assay is described as follows: Antimicrobial activity against Streptococcus pneumoniae 8249. It counts as functional.
The test system of assay [7] is Streptococcus pneumoniae. The assay is described as follows: Antimicrobial activity against Streptococcus pneumoniae ATCC 6303. It counts as functional.
Another assay relates to Streptococcus mitis. Briefly: Antimicrobial activity against Streptococcus mitis NCTC 12161. It counts as functional.
Another assay deals with Streptococcus agalactiae. Briefly: Antimicrobial activity against Streptococcus agalactiae CECT 183. It counts as functional.
The test system of the next assay is Streptococcus mutans. The assay is described as follows: Antimicrobial activity against Streptococcus mutans CECT 479. It counts as functional.
The test system of another assay is Enterococcus faecalis. The assay is described as follows: Antimicrobial activity against Enterococcus faecalis. It counts as functional.
In assay [8] the test system is Streptococcus pneumoniae. The assay is described as follows: Lytic effect on Streptococcus pneumoniae M32 in presence of 10 ug/ml LytA amidase. It counts as functional, organism-based.
Assay [9] concerns Streptococcus pneumoniae. The assay is described as follows: Induction of autolysin LytA in Streptococcus pneumoniae M32 assessed as log reduction in bacterial count at 25 uM after 15 mins. It counts as functional.
Assay [10] concerns Streptococcus pneumoniae. The assay is described as follows: Induction of autolysin LytA Streptococcus pneumoniae M32 assessed as log reduction in bacterial count at 25 uM after 3 hrs. It counts as functional.
In assay [11] the test system is Streptococcus pseudopneumoniae. The assay is described as follows: Bactericidal effect on Streptococcus pseudopneumoniae at 10 uM. It counts as functional.
Assay [12] relates to Streptococcus sp. The assay is described as follows: Bactericidal effect on Streptococcus sp. 782/96 at 10 uM. It counts as functional, organism-based.
Assay [13] relates to Streptococcus sp. The assay is described as follows: Bactericidal effect on Streptococcus sp.11923/96 at 10 uM. It counts as functional, organism-based.
In a further assay the test system is Streptococcus pyogenes. Briefly: Antimicrobial activity against Streptococcus pyogens CECT 985.
The test system of another assay is Streptococcus oralis. The assay is described as follows: Antimicrobial activity against Streptococcus oralis NCTC 11427.

The structures appear in SMILES notation. Converted amounts (≈) assume the structure as drawn. The source made the active and inactive calls. The calls are words filed in the database; no cut-off is given here.

In turn, `O=C(N[C@H](CO)[C@H](O)c1ccc([N+](=O)[O-])cc1)C(Cl)Cl` [CHLORAMPHENICOL] displayed an MIC with Streptococcus pneumoniae [1] greater than 8 µg/mL.
For `CC[C@H]1OC(=O)[C@H](C)[C@@H](O[C@H]2C[C@@](C)(OC)[C@@H](O)[C@H](C)O2)[C@H](C)[C@@H](O[C@@H]2O[C@H](C)C[C@H](N(C)C)[C@H]2O)[C@](C)(O)C[C@@H](C)C(=O)[C@H](C)[C@@H](O)[C@]1(C)O` [ERYTHROMYCIN], the MIC with Streptococcus sp. [2] was greater than 128 µg/mL; against Streptococcus sp. [3], 4 µg/mL (≈ 5.45 µM).
As for `CCCCCCCCCCCCCCCCOP(=O)([O-])OCC[N+](C)(C)C` [MILTEFOSINE], the MIC against Streptococcus pneumoniae [4] was found to be 5 µM (≈ 2.04 µg/mL); in the assay on Streptococcus pneumoniae [5] it was 5 µM (≈ 2.04 µg/mL); in the assay on Streptococcus pneumoniae [6], 6.25 µM (≈ 2.55 µg/mL); against Streptococcus pneumoniae [1], 6.25 µM; with Streptococcus pneumoniae [7] it was 6.25 µM (≈ 2.55 µg/mL); in the assay on Streptococcus mitis, 10 µM (≈ 4.08 µg/mL). In addition, the MIC in the assay with Streptococcus agalactiae amounted to 20 µM (≈ 8.15 µg/mL); in the assay on Streptococcus mutans, 20 µM (≈ 8.15 µg/mL); with Enterococcus faecalis, 20 µM (≈ 8.15 µg/mL); against Streptococcus pyogenes it was 10 µM (≈ 4.08 µg/mL); with Streptococcus oralis it was 10 µM (≈ 4.08 µg/mL). Moreover, the outcome (in the assay on Streptococcus pneumoniae [8]; in assay [11]; in the assay on Streptococcus sp. [12]; in the assay with Streptococcus sp. [13]) was Active. Besides, the results for the Activity in the assay with Streptococcus pneumoniae [9] and in the assay with Streptococcus pneumoniae [10] were 2 and 4, respectively.
On to `CN(C)[C@@H]1C(O)=C(C(N)=O)C(=O)[C@@]2(O)C(O)=C3C(=O)c4c(O)cccc4[C@@](C)(O)[C@H]3C[C@@H]12` [TETRACYCLINE], for which the MIC was determined as 8 µg/mL with Streptococcus pneumoniae [1], 128 µg/mL (≈ 288 µM) with Streptococcus sp. [2] and 0.5 µg/mL (≈ 1.13 µM) against Streptococcus sp. [3].
